Results: article PMC2359919, “Molecular targeting of retinoic acid metabolism in neuroblastoma: the role of the CYP26 inhibitor R116010 in vitro and in vivo” (British Journal of Cancer, 2007)

How the values were obtained:
[1] = test system: CYP26; design: method as in Njar et al, 2006; conditions: ref Njar et al, 2006; cited from earlier work
[2] = Pharmacokinetic analysis of RA in an SH-SY5Y xenograft model (retinoid concentrations in plasma, liver, tumour by LC/MS); type: in vivo, CD-1 nude mice; conditions: for Plasma % of total retinoids at all time points: 0.5, 2 and 6 h; for % Total retinoids, tumour, 0.5 h / Tumour concentration, 0.5 h / % Total retinoids, tumour, 2 h / Tumour concentration, 2 h / % Total retinoids, tumour, 6 h / Tumour concentration, 6 h: SH-SY5Y tumour; for % Total retinoids, tumour, 0.5 h / Tumour concentration, 0.5 h / % Total retinoids, tumour, 2 h / Tumour concentration, 2 h / % Total retinoids, tumour, 6 h / Tumour concentration, 6 h / % Total retinoids, liver, 0.5 h / Liver concentration, 0.5 h / % Total retinoids, liver, 2 h / Liver concentration, 2 h / % Total retinoids, liver, 6 h / Liver concentration, 6 h / % Total retinoids, plasma, 0.5 h / Plasma concentration, 0.5 h / % Total retinoids, plasma, 2 h / Plasma concentration, 2 h / % Total retinoids, plasma, 6 h / Plasma concentration, 6 h: label = retinoid measured
Experimental: (§1) All in vivo experiments were approved by the relevant institutional animal welfare committees, and performed according to national law. Female athymic nude mice (CD-1 nu/nu, Charles River) used for antitumour studies were maintained and handled in isolators, under specific pathogen-free conditions, at 24°C with a 12 h light, 12 h dark cycle. Tumours were generated by implantation of SH-SY5Y cells subcutaneously (s.c.) into one flank of CD-1 nude mice (1 × 10^7 cells per animal).
(§2) Treatments began when the tumours were between 7 and 10 mm in length and breadth. Retinoids and R116010 were initially dissolved in DMSO before 10- or 20-fold dilutions in PBS, respectively. For pharmacokinetic studies, the animals were dosed with ATRA or 13cisRA (each 100 mg kg^−1) orally for 0.5, 2 and 6 h. For metabolism studies, animals were treated with R116010 orally at doses of 1.25 or 2.5 mg kg^−1 either immediately before the retinoid being studied, or up to three times (over 1–2 days) before dosing with the retinoid. At termination of experiments, animals were bled under terminal anaesthesia then killed by cervical dislocation. Plasma was immediately removed from the blood by centrifugation at 1000 g for 5 min and snap-frozen in liquid nitrogen in amber Eppendorfs. Tumour and liver samples were removed and snap-frozen, wrapped in foil, in liquid nitrogen.
(§3) Cell pellets obtained from retinoid incubations were re-suspended in 2 ml cell culture medium and disrupted by passing the samples several times through a syringe and hypodermic needle (25G × 1 inches, 0.5 mm × 25 mm; Terumo, Somerset, NJ, USA). Tumour and liver tissues were re-suspended in PBS and homogenised (T25 homogeniser, IKA Laboratories, Staufen, Germany). Retinoids were extracted as described previously ([Veal et al, 2002]; [Armstrong et al, 2005b]). Samples were reconstituted in 200 μl mobile phase A (n-hexane:dichloromethane:propan-2-ol, 400 : 1 : 0.27) and analysed by normal-phase HPLC as described previously ([Veal et al, 2002]). For LC/MS analysis, samples were reconstituted in 200 μl mobile phase A (50% acetonitrile, 50% (0.2%) acetic acid, v v^−1).
(§4) Resolution of retinoids was performed with a Luna C18(2) column (3 μm, 50 mm × 2 mm) using a Perkin Elmer LC (Beaconsfield, UK) system, consisting of a vacuum degasser, two series 200 pumps, a thermostatically controlled series 200 autosampler and a Waters 2487 UV absorbance detector. Retinoic isomers and metabolites were separated by gradient reversed-phase chromatography. An injection volume of 20 μl with a flow rate of 0.2 ml min^−1 was used with mobile phase A (50% acetonitrile, 50% (0.2%) acetic acid, v v^−1) and mobile phase B (acetonitrile, 0.1% acetic acid, v v^−1). Linear gradients were employed between the specified times as follows: 0, 100% A; 5 min, 100% A; 15 min, 100% B; 20 min, 100% B; 23 min, 100% A; 35 min, 100% A. An Applied Biosystems (Warrington, UK) API-2000 LC/MS/MS triple Q (quadrupole) mass spectrometer with electrospray ionisation source, controlled by Analyst software, was operated in single quadrupole negative mode for the detection of compounds.

[3] = test system: RA metabolism; assay: Effect of R116010 on retinoid concentrations (plasma, liver, tumour) in an SH-SY5Y xenograft model, LC/MS; type: in vivo, CD-1 nude mice; conditions: ATRA-treated mice (100 mg kg^−1) without or with R116010; 6 h
Experimental: as §1, §2, §3, §4

[4] = after 13cisRA 100 mg kg^−1 oral

Row | % Total retinoids, tumour, 0.5 h [2, 4] [%] | Tumour concentration, 0.5 h [2, 4] [µg/g] | % Total retinoids, tumour, 2 h [2, 4] [%] | Tumour concentration, 2 h [2, 4] [µg/g] | % Total retinoids, tumour, 6 h [2, 4] [%] | Tumour concentration, 6 h [2, 4] [µg/g] | % Total retinoids, liver, 0.5 h [2, 4] [%] | Liver concentration, 0.5 h [2, 4] [µg/g] | % Total retinoids, liver, 2 h [2, 4] [%] | Liver concentration, 2 h [2, 4] [µg/g] | % Total retinoids, liver, 6 h [2, 4] [%] | Liver concentration, 6 h [2, 4] [µg/g] | % Total retinoids, plasma, 0.5 h [2, 4] [%] | Plasma concentration, 0.5 h [2, 4] [nM] | % Total retinoids, plasma, 2 h [2, 4] [%] | Plasma concentration, 2 h [2, 4] [nM] | % Total retinoids, plasma, 6 h [2, 4] [%] | Plasma concentration, 6 h [2, 4] [nM] | % Total retinoids, tumour, 0.5 h ([2]; after ATRA 100 mg kg^−1 oral) [%] | Tumour concentration, 0.5 h ([2]; after ATRA 100 mg kg^−1 oral) [µg/g] | SMILES | further results
1 | – | – | – | – | – | – | – | – | – | – | – | – | – | – | – | – | – | – | – | – | Clc1cccc(C(c2ccc3[nH]cnc3c2)n2ccnc2)c1 (stereo not drawn) [liarozole] | Ability to inhibit CYP26 [1]: only moderate ability to inhibit CYP26
2 | <1 | 0.02 ± 0.0 | 3 | 0.09 ± 0.04 | 16 | 0.09 ± 0.02 | 5 | 0.26 ± 0.10 | 8 | 0.30 ± 0.09 | 12 | 0.67 ± 0.25 | 0 | 0 | <1 | 130 ± 40 | 0 | 0 | 8 | 0.21 ± 0.09 | CC1=C(/C=C/C(C)=C/C=C/C(C)=C/C(=O)O)C(C)(C)CCC1=O [AT-4-oxoRA, all-trans-4-oxo-RA] | Plasma % of total retinoids at all time points ([2]; after 13cisRA 100 mg kg^−1): < 10%; % Total retinoids, tumour, 2 h ([2]; after ATRA 100 mg kg^−1 oral): 2%; Tumour concentration, 2 h ([2]; after ATRA 100 mg kg^−1 oral): 0.24 ± 0.06 µg/g; % Total retinoids, tumour, 6 h ([2]; after ATRA 100 mg kg^−1 oral): 17%; Tumour concentration, 6 h ([2]; after ATRA 100 mg kg^−1 oral): 0.79 ± 0.38 µg/g; % Total retinoids, liver, 0.5 h ([2]; after ATRA 100 mg kg^−1 oral): 11%; Liver concentration, 0.5 h ([2]; after ATRA 100 mg kg^−1 oral): 0.44 ± 0.12 µg/g; % Total retinoids, liver, 2 h ([2]; after ATRA 100 mg kg^−1 oral): 13%; Liver concentration, 2 h ([2]; after ATRA 100 mg kg^−1 oral): 1.07 ± 0.05 µg/g; % Total retinoids, liver, 6 h ([2]; after ATRA 100 mg kg^−1 oral): 45%; Liver concentration, 6 h ([2]; after ATRA 100 mg kg^−1 oral): 2.39 ± 0.72 µg/g; Liver concentration, 6 h ([2]; after ATRA 100 mg kg^−1 oral, listed as AT-4-oxo-RA): 2.39 µg/g; % Total retinoids, plasma, 0.5 h ([2]; after ATRA 100 mg kg^−1 oral): 4%; Plasma concentration, 0.5 h ([2]; after ATRA 100 mg kg^−1 oral): 600 ± 400 nM; % Total retinoids, plasma, 2 h ([2]; after ATRA 100 mg kg^−1 oral): 6%; Plasma concentration, 2 h ([2]; after ATRA 100 mg kg^−1 oral): 1700 ± 300 nM; % Total retinoids, plasma, 6 h ([2]; after ATRA 100 mg kg^−1 oral): 22%; Plasma concentration, 6 h ([2]; after ATRA 100 mg kg^−1 oral): 4000 ± 2400 nM
3 | 3 | 0.06 ± 0.02 | 2 | 0.04 ± 0.0 | 19 | 0.11 ± 0.05 | 18 | 0.89 ± 0.22 | 33 | 1.33 ± 0.08 | 69 | 3.79 ± 0.99 | 2 | 270 ± 110 | 3 | 630 ± 100 | 20 | 1220 ± 240 | 0 | 0 | CC1=C(/C=C/C(C)=C/C=C/C(C)=C\C(=O)O)C(C)(C)CCC1=O [13cis-4-oxoRA, 13-cis-4-oxo-RA] | Liver concentration, 6 h ([2]; after 13cisRA 100 mg kg^−1 oral, listed as 13cis-4-oxo-RA): 3.79 µg/g; Plasma % of total retinoids at all time points ([2]; after ATRA 100 mg kg^−1): < 10%; % Total retinoids, tumour, 2 h ([2]; after ATRA 100 mg kg^−1 oral): 0%; Tumour concentration, 2 h ([2]; after ATRA 100 mg kg^−1 oral): 0 µg/g; % Total retinoids, tumour, 6 h ([2]; after ATRA 100 mg kg^−1 oral): 0%; Tumour concentration, 6 h ([2]; after ATRA 100 mg kg^−1 oral): 0 µg/g; % Total retinoids, liver, 0.5 h ([2]; after ATRA 100 mg kg^−1 oral): 1%; Liver concentration, 0.5 h ([2]; after ATRA 100 mg kg^−1 oral): 0.06 ± 0.03 µg/g; % Total retinoids, liver, 2 h ([2]; after ATRA 100 mg kg^−1 oral): 1%; Liver concentration, 2 h ([2]; after ATRA 100 mg kg^−1 oral): 0.09 ± 0.02 µg/g; % Total retinoids, liver, 6 h ([2]; after ATRA 100 mg kg^−1 oral): 4%; Liver concentration, 6 h ([2]; after ATRA 100 mg kg^−1 oral): 0.22 ± 0.09 µg/g; % Total retinoids, plasma, 0.5 h ([2]; after ATRA 100 mg kg^−1 oral): <1%; Plasma concentration, 0.5 h ([2]; after ATRA 100 mg kg^−1 oral): 30 ± 10 nM; % Total retinoids, plasma, 2 h ([2]; after ATRA 100 mg kg^−1 oral): <1%; Plasma concentration, 2 h ([2]; after ATRA 100 mg kg^−1 oral): 20 ± 10 nM; % Total retinoids, plasma, 6 h ([2]; after ATRA 100 mg kg^−1 oral): <1%; Plasma concentration, 6 h ([2]; after ATRA 100 mg kg^−1 oral): 50 ± 30 nM; Plasma 13cis-4-oxo-RA [3]: not detectable
